Results: patent US20170107212A1, “NOVEL COMPOUNDS” (Bayer Pharma Aktiengesellschaft, priority 2014, published 2017)
Where a name gives a salt, the structure may show the parent alone.

Legend:
[1] = system: HCT116 FOPFlash; assay: Control reporter assay, HCT116 FOP control vector (non-functional TCF elements), luciferase expression; format: cell-based; conditions: Homo sapiens, HCT116 FOP control reporter cells, 36 hours incubation, dilution series 50 μM to 15 nM
How it was run: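 Stable HCT116 cells carrying FOP vector (randomized non-functional TCF sites) plus pcDNA3, run in parallel with TOP line; compounds 50 μM to 15 nM (3.16-fold steps) added in CAFTY buffer pH 7.4 with 2 mM Ca2+, 0.01% BSA. Incubated 36 h at 37 °C, 5% CO2; luciferase luminescence read.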

[2] = system: constitutive active colorectal cancer cell (CRC) Wnt pathway, HCT116 TOPFlash; assay: Cellular reporter assay, HCT116 Super TopFlash (constitutive active Wnt pathway), luciferase expression; format: cell-based; conditions: HCT116 Super TopFlash reporter cells, 36 hours incubation, dilution series 50 μM to 15 nM
How it was run: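 HCT116 cells stably carrying Super TopFlash (β-catenin ΔS45, constitutive Wnt) run in parallel with FOP control line; compounds 50 μM to 15 nM (3.16-fold) in CAFTY buffer pH 7.4 with 2 mM Ca2+, 0.01% BSA, 36 h at 37 °C. Luciferase luminescence read as Wnt activity.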

| IC50 ([1]; HCT-116, 36 h) | IC50 ([2]; Homo sapiens, HCT-116, 36 h) | IC50 [2] | SMILES | IC50 ([1]; HCT-116) | IC50 ([2]; Homo sapiens, HCT-116) |
| --- | --- | --- | --- | --- | --- |
| ≥ 50 µM | 0.0355 µM |  | CN1CCN(CC(=O)Nc2cc(C(=O)Nc3cnc(-c4ccc(N)nc4)cn3)ccc2OC(F)(F)F)CC1 [Example 54, N-[5-(6-aminopyridin-3-yl)pyrazin-2-yl]-3-{[(4-methylpiperazin-1-yl)acetyl]amino}-4-(trifluoromethoxy)benzamide] |  |  |
| ≥ 50 µM | 4.4 µM |  | CN1CCN(CC(=O)Nc2cc(C(=O)Nc3nnc(-c4cnccn4)s3)ccc2OC2CC2)CC1 [Example 60, 4-(cyclopropyloxy)-3-{[(4-methylpiperazin-1-yl)acetyl]amino}-N-[5-(pyrazin-2-yl)-1,3,4-thiadiazol-2-yl]benzamide] |  |  |
| ≥ 50 µM | 0.423 µM |  | Cc1nc(-c2nnc(NC(=O)c3ccc(OC(F)(F)F)c(NC(=O)CN4CCN(C)CC4)c3)s2)cs1 [Example 44, 3-{[(4-methylpiperazin-1-yl)acetyl]amino}-N-[5-(2-methyl-1,3-thiazol-4-yl)-1,3,4-thiadiazol-2-yl]-4-(trifluoromethoxy)benzamide] |  |  |
| ≥ 50 µM | ≥ 50 µM |  | Cc1ccnc(-c2nnc(NC(=O)c3ccc(OC(F)(F)F)c(NC(=O)CN4CCOCC4)c3)s2)c1 [Example 93, N-[5-(4-methylpyridin-2-yl)-1,3,4-thiadiazol-2-yl]-3-[(morpholin-4-ylacetyl)amino]-4-(trifluoromethoxy)benzamide] |  |  |
| ≥ 50 µM | 0.18 µM |  | Cc1cncc(-c2nnc(NC(=O)c3ccc(OC(F)(F)F)c(NC(=O)CN4CCN(C)CC4)c3)s2)n1 [Example 102, 3-{[(4-methylpiperazin-1-yl)acetyl]amino}-N-[5-(6-methylpyrazin-2-yl)-1,3,4-thiadiazol-2-yl]-4-(trifluoromethoxy)benzamide] |  |  |
| ≥ 50 µM | 0.973 µM |  | CN1CCN(CC(=O)Nc2cc(C(=O)Nc3nnc(-c4cnc(N)nc4)s3)ccc2OC(F)(F)F)CC1 [Example 31, N-[5-(2-aminopyrimidin-5-yl)-1,3,4-thiadiazol-2-yl]-3-{[(4-methylpiperazin-1-yl)acetyl]amino}-4-(trifluoromethoxy)benzamide] |  |  |
| ≥ 50 µM | 0.663 µM |  | Cc1cncc(-c2nnc(NC(=O)c3ccc(OC(F)(F)F)c(NC(=O)CN4CCOCC4)c3)s2)n1 [Example 48, N-[5-(6-methylpyrazin-2-yl)-1,3,4-thiadiazol-2-yl]-3-[(morpholin-4-ylacetyl)amino]-4-(trifluoromethoxy)benzamide] |  |  |
| ≥ 50 µM | 0.064 µM |  | CN1CCN(CC(=O)Nc2cc(C(=O)Nc3cnc(-c4ccncc4)cn3)ccc2OC(F)(F)F)CC1 [Example 52, 3-{[(4-methylpiperazin-1-yl)acetyl]amino}-N-[5-(pyridin-4-yl)pyrazin-2-yl]-4-(trifluoromethoxy)benzamide] |  |  |
| ≥ 50 µM |  | 0.06 µM | Cc1ccncc1-c1nnc(NC(=O)c2ccc(OC(F)(F)F)c(NC(=O)CN3CCN(C)CC3)c2)s1 [Example 36, 3-{[(4-methylpiperazin-1-yl)acetyl]amino}-N-[5-(4-methylpyridin-3-yl)-1,3,4-thiadiazol-2-yl]-4-(trifluoromethoxy)benzamide hydrochloride (1:1)] |  |  |
| ≥ 50 µM | 2.7 µM |  | Cc1ncccc1-c1nnc(NC(=O)c2ccc(OC(F)(F)F)c(NC(=O)CN3CCN(C)CC3)c2)s1 [Example 27, 3-{[(4-methylpiperazin-1-yl)acetyl]amino}-N-[5-(2-methylpyridin-3-yl)-1,3,4-thiadiazol-2-yl]-4-(trifluoromethoxy)benzamide] |  |  |
| ≥ 50 µM | 26.3 µM |  | CN1CCN(CC(=O)Nc2cc(C(=O)Nc3nnc(-c4ccncc4)s3)ccc2OC(F)(F)F)CC1 [Example 83, 3-{[(4-methylpiperazin-1-yl)acetyl]amino}-N-[5-(pyridin-4-yl)-1,3,4-thiadiazol-2-yl]-4-(trifluoromethoxy)benzamide] |  |  |
| 14 µM | 0.38 µM |  | CN1CCN(CC(=O)Nc2cc(C(=O)Nc3nnc(-c4cccnc4)s3)ccc2OC2CC2)CC1 [Example 34, 4-(cyclopropyloxy)-3-{[(4-methylpiperazin-1-yl)acetyl]amino}-N-[5-(pyridin-3-yl)-1,3,4-thiadiazol-2-yl]benzamide] |  |  |
| ≥ 50 µM | 27.5 µM |  | O=C(CN1CCOCC1)Nc1cc(C(=O)Nc2nnc(-c3ccccn3)s2)ccc1OC(F)(F)F [Example 80, 3-[{morpholin-4-ylacetyl)amino]-N-[5-(pyridin-2-yl)-1,3,4-thiadiazol-2-yl]-4-(trifluoromethoxy)benzamide] |  |  |
| ≥ 50 µM | ≥ 50 µM |  | CN1CCN(CC(=O)Nc2cc(C(=O)Nc3nnc(-c4cccnc4)s3)ccc2Cl)CC1 [Example 84, 4-chloro-3-{[(4-methylpiperazin-1-yl)acetyl]amino}-N-[5-(pyridin-3-yl)-1,3,4-thiadiazol-2-yl]benzamide hydrochloride] |  |  |
| ≥ 50 µM | 1.86 µM |  | CN1CCN(CC(=O)Nc2cc(C(=O)Nc3nnc(-c4cncs4)s3)ccc2OC(F)(F)F)CC1 [Example 68, 3-{[(4-methylpiperazin-1-yl)acetyl]amino}-N-[5-(1,3-thiazol-5-yl)-1,3,4-thiadiazol-2-yl]-4-(trifluoromethoxy)benzamide] |  |  |

Second part, the compound before the results:

| SMILES | IC50 ([1]; HCT-116, 36 h) | IC50 ([2]; Homo sapiens, HCT-116, 36 h) | IC50 [2] | IC50 ([1]; HCT-116) | IC50 ([2]; Homo sapiens, HCT-116) |
| --- | --- | --- | --- | --- | --- |
| O=C(CN1CCOCC1)Nc1cc(C(=O)Nc2nnc(-c3cncc(Cl)c3)s2)ccc1OC(F)(F)F [Example 47, N-[5-(5-chloropyridin-3-yl)-1,3,4-thiadiazol-2-yl]-3-[(morpholin-4-ylacetyl)amino]-4-(trifluoromethoxy)benzamide] | ≥ 50 µM | 0.585 µM |  |  |  |
| CN1CCN(CC(=O)Nc2cc(C(=O)Nc3nnc(-c4ncccc4F)s3)ccc2OC(F)(F)F)CC1 [Example 43, 4-(2-{[5-{[5-(3-fluoropyridin-2-yl)-1,3,4-thiadiazol-2-yl]carbamoyl}-2-(trifluoromethoxy)phenyl]amino}-2-oxoethyl)-1-methylpiperazin-1-ium hexafluorophosphate] |  |  |  | 32 µM | 2 µM |
| O=C(CN1CCOCC1)Nc1cc(C(=O)Nc2ccc(-c3cccnc3)cn2)ccc1OC(F)(F)F [Example 14, N-(3,3′-bipyridin-6-yl)-3-[(morpholin-4-ylacetyl)amino]-4-(trifluoromethoxy)benzamide] | ≥ 50 µM | 0.0423 µM |  |  |  |
| O=C(CN1CCOCC1)Nc1cc(C(=O)Nc2ccc(-c3cccnc3)cn2)ccc1OC1CC1 [Example 118, N-(3,3′-bipyridin-6-yl)-4-(cyclopropyloxy)-3-[(morpholin-4-ylacetyl)amino]benzamide] | ≥ 50 µM | ≥ 50 µM |  |  |  |
| COc1ccc(NC(=O)c2ccc(-c3ccncc3)s2)cc1NC(=O)CN1CCOCC1 [Example 25, N-{4-methoxy-3-[(morpholin-4-ylacetyl)amino]phenyl}-5-(pyridin-4-yl)thiophene-2-carboxamide] | ≥ 50 µM | 4.4 µM |  |  |  |
| Nc1ccc(-c2ccc(NC(=O)c3ccc(OC(F)(F)F)c(NC(=O)CN4CCOCC4)c3)nc2)cn1 [Example 15, N-(6′-amino-3,3′-bipyridin-6-yl)-3-[(morpholin-4-ylacetyl)amino]-4-(trifluoromethoxy)benzamide] | ≥ 50 µM | 0.0815 µM |  |  |  |
| O=C(CN1CCOCC1)Nc1cc(C(=O)Nc2nnc(-c3cncs3)s2)ccc1OC(F)(F)F [Example 103, 3-[(morpholin-4-ylacetyl)amino)-N-[5-(1,3-thiazol-5-yl)-1,3,4-thiadiazol-2-yl]-4-(trifluoromethoxy)benzamide] | ≥ 50 µM | 12.2 µM |  |  |  |
| CN1CCN(CC(=O)Nc2cc(C(=O)Nc3nnc(-c4nccs4)s3)ccc2OC(F)(F)F)CC1 [Example 45, 1-methyl-4-(2-oxo-2-{[5-{[5-(1,3-thiazol-2-yl)-1,3,4-thiadiazol-2-yl]carbamoyl}-2-(trifluoromethoxy)phenyl]amino}ethyl)piperazin-1-ium hexafluorophosphate] |  |  |  | 45 µM | 1.48 µM |
| CN1CCN(C2(C(=O)Nc3cc(C(=O)Nc4nnc(-c5cccnc5)s4)ccc3Cl)CC2)CC1 [Example 26, 4-chloro-3-({[1-(4-methylpiperazin-1-yl)cyclopropyl]carbonyl}amino)-N-[5-(pyridin-3-yl)-1,3,4-thiadiazol-2-yl]benzamide] | ≥ 50 µM | 0.5 µM |  |  |  |
| CC(C(=O)Nc1cc(C(=O)Nc2ccc(-c3ccc(F)nc3)nc2)ccc1OC(F)(F)F)N1CCOCC1 (stereo not drawn) [Example 23, N-(6′-fluoro-2,3′-bipyridin-5-yl)-3-{[2-(morpholin-4-yl)propanoyl]amino}-4-(trifluoromethoxy)benzamide] | ≥ 50 µM | 0.0535 µM |  |  |  |
| O=C(Nc1nnc(-c2cccnc2)s1)c1ccc(OC(F)(F)F)c(NC(=O)C2(N3CCOCC3)CC2)c1 [Example 2, 3-({[1-(morpholin-4-yl)cyclopropyl]carbonyl}amino)-N-[5-(pyridin-3-yl)-1,3,4-thiadiazol-2-yl]-4-(trifluoromethoxy)benzamide] | ≥ 50 µM | 0.282 µM |  |  |  |
| Cc1nccnc1-c1nnc(NC(=O)c2ccc(OC(F)(F)F)c(NC(=O)CN3CCN(C)CC3)c2)s1 [Example 41, 1-methyl-4-(2-{[5-{[5-(3-methylpyrazin-2-yl)-1,3,4-thiadiazol-2-yl]carbamoyl}-2-(trifluoromethoxy)phenyl]amino}-2-oxoethyl)piperazin-1-ium hexafluorophosphate] |  |  |  | ≥ 50 µM | 0.86 µM |
